From ChEMBL document CHEMBL1143465, “New fluorinated pyrrolidine and azetidine amides as dipeptidyl peptidase IV inhibitors” (Bioorg Med Chem Lett, 2005) come the findings set out here.

This experiment concerns Mus musculus. The experiment can be described thus: Percent inhibition of blood glucose concentration measured 30 min after 10 mg/kg dosing to fasted mice followed 15 min later by 1 g/kg oral glucose load. Type of experiment: functional.

SMILES strings stand for the structures.

As to `N[C@H](C(=O)N1CC(F)C(F)C1)C1CCCCC1` (stereo partly specified), the inhibition in vivo at 10 mg/kg was 60%.

On to `N[C@H](C(=O)N1CC(F)(F)C(F)(F)C1)C1CCCCC1`, for which the inhibition in vivo at 10 mg/kg is 59%.

`N[C@H](C(=O)N1CCCC1)C1CCCCC1`: the inhibition in vivo at 10 mg/kg turned out to be 69%.

Take `N[C@H](C(=O)N1CCC(F)(F)C1)C1CCCCC1`: the inhibition in vivo at 10 mg/kg was determined as 78%.

As to `N[C@H](C(=O)N1CC(F)(F)C1)C1CCCCC1`, the inhibition in vivo at 10 mg/kg worked out at 109%.

As for `N[C@H](C(=O)N1CC(F)C1)C1CCCCC1`, the inhibition in vivo at 10 mg/kg was 70%.
